Laboratory results as given in paper PMC9150124, “Design of a Potent, Selective, and Brain-Penetrant Inhibitor of Wnt-Deactivating Enzyme Notum by Optimization of a Crystallographic Fragment Hit” (Journal of Medicinal Chemistry, 2022).

Columns and labels:
Assay in all cases: SelectScreen kinase profiling, SSBK ZLyte SP Technology
Assay type in all cases: biochemical
[1] = target: kinase named in conditions (Homo sapiens, UniProt P41240); details: CSK, 10 μM
Description: (§1) Kinase selectivity screening was performed by Thermo Fisher Scientific (Paisley, U.K.) in their SelectScreen Biochemical Kinase Profiling Service. Assay information and data are presented in the Supporting Information.
(§2) Kinase selectivity screening was performed by ThermoFisher Scientific (Paisley, U.K.) in their SelectScreenTM
(§3) Biochemical Kinase Profiling service .

[2] = target: kinase named in conditions (Homo sapiens, UniProt P30530); details: AXL, 10 μM
Description: as §1, §2, §3

[3] = target: kinase named in conditions (Homo sapiens, UniProt O15264); details: MAPK13 (p38 delta), 10 μM
Description: as §1, §2, §3

[4] = target: kinase named in conditions (Homo sapiens, UniProt Q8NE63); details: HIPK4, 10 μM
Description: as §1, §2, §3

[5] = target: kinase named in conditions (Homo sapiens, UniProt Q9BUB5); details: MKNK1 (MNK1), 10 μM
Description: as §1, §2, §3

[6] = target: kinase named in conditions (Homo sapiens, UniProt Q7KZI7); details: MARK2, 10 μM
Description: as §1, §2, §3

[7] = target: kinase named in conditions (Homo sapiens, UniProt P43250); details: GRK6, 10 μM
Description: as §1, §2, §3

[8] = target: kinase named in conditions (Homo sapiens, UniProt Q12866); details: MERTK (cMER), 10 μM
Description: as §1, §2, §3

[9] = target: kinase named in conditions (Homo sapiens, UniProt P00533, L861Q); details: EGFR (ErbB1) L861Q, 10 μM
Description: as §1, §2, §3

[10] = target: kinase named in conditions (Homo sapiens, UniProt P08581, M1250T); details: MET M1250T, 10 μM
Description: as §1, §2, §3

[11] = target: kinase named in conditions (Homo sapiens, UniProt P29323); details: EPHB2, 10 μM
Description: as §1, §2, §3

[12] = target: kinase named in conditions (Homo sapiens, UniProt Q5VT25); details: CDC42 BPA (MRCKA), 10 μM
Description: as §1, §2, §3

[13] = target: kinase named in conditions (Homo sapiens, UniProt Q8IY84); details: NIM1K, 10 μM
Description: as §1, §2, §3

[14] = target: kinase named in conditions (Homo sapiens, UniProt P51957); details: NEK4, 10 μM
Description: as §1, §2, §3

[15] = target: kinase named in conditions (Homo sapiens, UniProt Q02750); details: MAP2K1 (MEK1), 10 μM
Description: as §1, §2, §3

[16] = target: kinase named in conditions (Homo sapiens, UniProt O15075); details: DCAMKL1 (DCLK1), 10 μM
Description: as §1, §2, §3

[17] = target: kinase named in conditions (Homo sapiens, UniProt Q8IW41); details: MAPKAPK5 (PRAK), 10 μM
Description: as §1, §2, §3

[18] = target: kinase named in conditions (Homo sapiens, UniProt P00533, L858R); details: EGFR (ErbB1) L858R, 10 μM
Description: as §1, §2, §3

[19] = target: kinase named in conditions (Homo sapiens, UniProt P00533, G719S); details: EGFR (ErbB1) G719S, 10 μM
Description: as §1, §2, §3

[20] = target: kinase named in conditions (Homo sapiens, UniProt Q13554); details: CAMK2B (CaMKII beta), 10 μM
Description: as §1, §2, §3

[21] = target: kinase named in conditions (Homo sapiens, UniProt Q00537); details: CDK17/cyclin Y, 10 μM
Description: as §1, §2, §3

[22] = target: kinase named in conditions (Homo sapiens, UniProt P00533, G719C); details: EGFR (ErbB1) G719C, 10 μM
Description: as §1, §2, §3

[23] = target: kinase named in conditions (Homo sapiens, UniProt P68400); details: CSNK2A1 (CK2 alpha 1), 10 μM
Description: as §1, §2, §3

[24] = target: kinase named in conditions (Homo sapiens, UniProt Q16539); details: 10 μM
Description: as §1, §2, §3

[25] = target: kinase named in conditions (Homo sapiens, UniProt O96013); details: PAK4, 10 μM
Description: as §1, §2, §3

[26] = target: kinase named in conditions (Homo sapiens, UniProt Q14289); details: PTK2B (FAK2), 10 μM
Description: as §1, §2, §3

[27] = target: kinase named in conditions (Homo sapiens, UniProt O43781); details: DYRK3, 10 μM
Description: as §1, §2, §3

[28] = target: kinase named in conditions (Homo sapiens, UniProt O15146); details: MUSK, 10 μM
Description: as §1, §2, §3

[29] = target: kinase named in conditions (Homo sapiens, UniProt Q13153); details: PAK1, 10 μM
Description: as §1, §2, §3

[30] = target: kinase named in conditions (Homo sapiens, UniProt P36507); details: MAP2K2 (MEK2), 10 μM
Description: as §1, §2, §3

[31] = target: kinase named in conditions (Homo sapiens, UniProt P42679); details: MATK (HYL), 10 μM
Description: as §1, §2, §3

[32] = target: kinase named in conditions (Homo sapiens, UniProt Q15303); details: ERBB4 (HER4), 10 μM
Description: as §1, §2, §3

Sequence of kinase named in conditions (Homo sapiens, UniProt Q16539) (Q16539 whole entry): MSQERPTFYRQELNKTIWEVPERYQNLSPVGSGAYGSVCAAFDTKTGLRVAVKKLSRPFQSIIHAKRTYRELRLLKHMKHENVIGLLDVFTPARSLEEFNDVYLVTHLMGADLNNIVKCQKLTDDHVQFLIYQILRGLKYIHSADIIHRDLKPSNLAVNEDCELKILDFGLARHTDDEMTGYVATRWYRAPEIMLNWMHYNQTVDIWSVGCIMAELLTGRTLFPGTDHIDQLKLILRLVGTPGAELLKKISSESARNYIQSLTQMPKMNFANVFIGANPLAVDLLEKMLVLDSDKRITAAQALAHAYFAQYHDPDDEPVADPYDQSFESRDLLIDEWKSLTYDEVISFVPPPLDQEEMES
Sequence of kinase named in conditions (Homo sapiens, UniProt O43781) (O43781 whole entry): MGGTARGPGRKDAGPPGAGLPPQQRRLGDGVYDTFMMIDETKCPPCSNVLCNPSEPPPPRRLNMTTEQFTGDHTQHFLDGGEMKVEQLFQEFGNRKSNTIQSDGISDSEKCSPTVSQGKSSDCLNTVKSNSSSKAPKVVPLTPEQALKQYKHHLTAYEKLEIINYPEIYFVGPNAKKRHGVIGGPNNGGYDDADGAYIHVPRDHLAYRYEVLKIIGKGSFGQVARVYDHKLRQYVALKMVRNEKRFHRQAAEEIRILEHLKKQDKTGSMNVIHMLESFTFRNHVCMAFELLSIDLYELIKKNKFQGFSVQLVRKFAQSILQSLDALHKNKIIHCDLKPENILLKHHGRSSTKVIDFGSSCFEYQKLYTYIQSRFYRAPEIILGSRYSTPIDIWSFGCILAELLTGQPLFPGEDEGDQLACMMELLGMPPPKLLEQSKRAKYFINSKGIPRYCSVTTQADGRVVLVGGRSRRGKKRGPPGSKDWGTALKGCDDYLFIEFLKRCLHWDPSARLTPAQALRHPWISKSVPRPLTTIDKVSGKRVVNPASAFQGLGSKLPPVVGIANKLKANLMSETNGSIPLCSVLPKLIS
Sequence of kinase named in conditions (Homo sapiens, UniProt P51957) (P51957 whole entry): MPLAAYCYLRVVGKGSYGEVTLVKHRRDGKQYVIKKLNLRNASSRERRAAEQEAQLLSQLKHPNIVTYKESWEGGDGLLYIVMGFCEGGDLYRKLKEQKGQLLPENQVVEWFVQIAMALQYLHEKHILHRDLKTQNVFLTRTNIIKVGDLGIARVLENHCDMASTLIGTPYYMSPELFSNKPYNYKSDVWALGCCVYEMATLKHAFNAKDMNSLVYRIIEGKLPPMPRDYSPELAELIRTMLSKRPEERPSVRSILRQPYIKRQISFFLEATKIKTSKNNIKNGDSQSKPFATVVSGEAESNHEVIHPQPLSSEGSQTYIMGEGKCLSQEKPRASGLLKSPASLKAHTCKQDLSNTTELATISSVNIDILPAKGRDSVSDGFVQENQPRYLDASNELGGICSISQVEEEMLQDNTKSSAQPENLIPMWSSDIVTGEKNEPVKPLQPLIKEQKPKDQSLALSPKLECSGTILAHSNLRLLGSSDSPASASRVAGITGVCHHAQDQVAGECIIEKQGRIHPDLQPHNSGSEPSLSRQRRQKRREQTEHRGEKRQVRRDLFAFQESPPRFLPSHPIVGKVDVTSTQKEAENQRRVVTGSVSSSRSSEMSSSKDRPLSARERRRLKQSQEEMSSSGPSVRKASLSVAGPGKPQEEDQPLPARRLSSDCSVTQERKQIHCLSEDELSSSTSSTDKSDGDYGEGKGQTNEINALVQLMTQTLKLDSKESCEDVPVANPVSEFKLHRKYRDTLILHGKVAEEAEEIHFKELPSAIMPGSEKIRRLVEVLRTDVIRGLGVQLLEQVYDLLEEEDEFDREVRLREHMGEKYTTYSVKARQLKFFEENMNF
Sequence of kinase named in conditions (Homo sapiens, UniProt P43250) (P43250 whole entry): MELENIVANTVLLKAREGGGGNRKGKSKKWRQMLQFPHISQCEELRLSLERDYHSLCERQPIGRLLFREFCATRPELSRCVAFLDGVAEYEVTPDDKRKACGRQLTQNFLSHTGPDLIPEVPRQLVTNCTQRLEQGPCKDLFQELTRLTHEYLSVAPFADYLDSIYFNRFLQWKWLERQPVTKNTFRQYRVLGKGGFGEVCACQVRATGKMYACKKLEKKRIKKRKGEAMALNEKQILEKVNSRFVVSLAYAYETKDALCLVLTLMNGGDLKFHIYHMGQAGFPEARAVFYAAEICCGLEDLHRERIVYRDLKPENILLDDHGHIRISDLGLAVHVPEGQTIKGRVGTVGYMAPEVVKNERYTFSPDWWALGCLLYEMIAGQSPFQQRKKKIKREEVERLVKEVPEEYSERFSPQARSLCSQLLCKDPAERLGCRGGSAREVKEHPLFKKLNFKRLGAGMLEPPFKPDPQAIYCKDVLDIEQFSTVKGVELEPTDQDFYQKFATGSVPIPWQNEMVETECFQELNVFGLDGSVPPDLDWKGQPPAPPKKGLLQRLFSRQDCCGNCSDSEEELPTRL
Sequence of kinase named in conditions (Homo sapiens, UniProt Q7KZI7) (Q7KZI7 whole entry): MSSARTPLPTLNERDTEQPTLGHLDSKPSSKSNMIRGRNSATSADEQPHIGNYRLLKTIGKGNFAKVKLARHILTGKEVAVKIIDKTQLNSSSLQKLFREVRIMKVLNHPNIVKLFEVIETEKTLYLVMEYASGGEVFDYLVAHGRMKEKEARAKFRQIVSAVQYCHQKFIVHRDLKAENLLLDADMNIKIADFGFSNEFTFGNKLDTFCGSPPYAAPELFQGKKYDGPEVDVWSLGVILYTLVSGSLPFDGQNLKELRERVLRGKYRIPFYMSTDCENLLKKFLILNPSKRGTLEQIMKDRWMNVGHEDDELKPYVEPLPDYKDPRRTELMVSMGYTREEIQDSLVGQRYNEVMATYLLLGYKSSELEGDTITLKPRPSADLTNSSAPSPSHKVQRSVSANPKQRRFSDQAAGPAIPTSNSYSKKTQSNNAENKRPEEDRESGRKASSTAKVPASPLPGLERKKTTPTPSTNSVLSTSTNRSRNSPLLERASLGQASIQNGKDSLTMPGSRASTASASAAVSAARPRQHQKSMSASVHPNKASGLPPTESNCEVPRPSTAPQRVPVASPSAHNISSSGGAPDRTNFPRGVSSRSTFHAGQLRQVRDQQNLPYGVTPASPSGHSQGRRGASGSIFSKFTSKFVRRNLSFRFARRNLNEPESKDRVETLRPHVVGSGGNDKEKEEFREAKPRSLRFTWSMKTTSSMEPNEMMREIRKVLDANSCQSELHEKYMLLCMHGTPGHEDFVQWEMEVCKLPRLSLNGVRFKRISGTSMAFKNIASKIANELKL
Sequence of kinase named in conditions (Homo sapiens, UniProt P68400) (P68400 whole entry): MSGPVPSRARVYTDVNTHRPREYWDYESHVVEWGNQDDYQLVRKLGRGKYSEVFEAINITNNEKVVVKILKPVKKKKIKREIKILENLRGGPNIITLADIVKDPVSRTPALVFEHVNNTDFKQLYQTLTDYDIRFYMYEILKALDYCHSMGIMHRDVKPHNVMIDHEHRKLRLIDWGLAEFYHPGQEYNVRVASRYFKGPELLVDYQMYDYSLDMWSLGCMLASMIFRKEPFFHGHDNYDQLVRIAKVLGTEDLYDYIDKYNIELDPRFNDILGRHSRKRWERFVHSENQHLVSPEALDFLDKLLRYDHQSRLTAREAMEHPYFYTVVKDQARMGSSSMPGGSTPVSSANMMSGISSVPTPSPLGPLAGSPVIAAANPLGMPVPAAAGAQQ
Sequence of kinase named in conditions (Homo sapiens, UniProt O15146) (O15146 24-869): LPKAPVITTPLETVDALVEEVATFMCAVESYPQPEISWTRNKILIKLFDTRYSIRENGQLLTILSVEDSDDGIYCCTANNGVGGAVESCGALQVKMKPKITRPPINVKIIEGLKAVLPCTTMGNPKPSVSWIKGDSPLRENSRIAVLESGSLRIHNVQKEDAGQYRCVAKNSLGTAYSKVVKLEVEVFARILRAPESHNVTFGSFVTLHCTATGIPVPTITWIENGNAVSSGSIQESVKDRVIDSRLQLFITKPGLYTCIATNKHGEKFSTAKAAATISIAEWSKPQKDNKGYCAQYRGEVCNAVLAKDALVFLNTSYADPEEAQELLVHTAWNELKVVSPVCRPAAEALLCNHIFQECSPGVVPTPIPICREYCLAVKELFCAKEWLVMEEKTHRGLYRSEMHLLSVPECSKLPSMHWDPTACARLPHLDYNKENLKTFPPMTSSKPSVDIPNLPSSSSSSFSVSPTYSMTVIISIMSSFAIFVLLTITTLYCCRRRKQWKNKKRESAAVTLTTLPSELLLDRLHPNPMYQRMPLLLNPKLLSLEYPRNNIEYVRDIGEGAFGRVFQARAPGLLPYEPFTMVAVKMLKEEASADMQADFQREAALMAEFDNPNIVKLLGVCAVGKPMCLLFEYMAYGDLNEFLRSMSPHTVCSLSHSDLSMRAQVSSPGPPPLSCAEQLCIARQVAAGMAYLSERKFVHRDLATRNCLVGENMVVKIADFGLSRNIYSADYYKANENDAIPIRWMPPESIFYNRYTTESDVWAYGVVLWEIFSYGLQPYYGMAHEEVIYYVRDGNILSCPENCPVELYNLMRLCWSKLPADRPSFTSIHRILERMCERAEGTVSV
Sequence of kinase named in conditions (Homo sapiens, UniProt P42679) (P42679 whole entry): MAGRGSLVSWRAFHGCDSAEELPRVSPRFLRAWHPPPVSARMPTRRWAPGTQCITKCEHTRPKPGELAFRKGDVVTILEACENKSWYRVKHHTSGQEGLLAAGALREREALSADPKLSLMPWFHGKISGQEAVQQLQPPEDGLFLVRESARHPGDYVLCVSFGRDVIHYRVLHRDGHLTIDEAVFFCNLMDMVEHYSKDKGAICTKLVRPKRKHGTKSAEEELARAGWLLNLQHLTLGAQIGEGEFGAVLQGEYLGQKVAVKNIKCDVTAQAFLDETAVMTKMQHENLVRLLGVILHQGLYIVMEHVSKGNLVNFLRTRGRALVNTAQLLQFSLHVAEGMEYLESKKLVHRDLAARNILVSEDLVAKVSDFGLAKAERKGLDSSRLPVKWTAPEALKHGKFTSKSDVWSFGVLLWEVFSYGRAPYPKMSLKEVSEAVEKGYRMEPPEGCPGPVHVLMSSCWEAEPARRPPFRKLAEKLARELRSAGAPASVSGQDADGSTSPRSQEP

FC(F)(F)c1c(Cl)ccc(-n2ccnn2)c1Cl [8l, 1-(2,4-Dichloro-3-(trifluoromethyl)phenyl)-1H-1,2,3-triazole]
inhibition at 10 µM [1]: 2% | inhibition at 10 µM [2]: 4% | inhibition at 10 µM [3]: -2% | inhibition at 10 µM [4]: -2% | inhibition at 10 µM [5]: 0% | inhibition at 10 µM [6]: -7% | inhibition at 10 µM [7]: 2% | inhibition at 10 µM [8]: 5% | inhibition at 10 µM [9]: 0% | inhibition at 10 µM [10]: 3% | inhibition at 10 µM [11]: 2% | inhibition at 10 µM [12]: -3% | inhibition at 10 µM [13]: 5% | inhibition at 10 µM [14]: 3% | inhibition at 10 µM [15]: -5% | inhibition at 10 µM [16]: 3% | inhibition at 10 µM [17]: 6% | inhibition at 10 µM [18]: 2% | inhibition at 10 µM [19]: -1% | inhibition at 10 µM [20]: 4% | inhibition at 10 µM [21]: 1% | inhibition at 10 µM [22]: 5% | inhibition at 10 µM [23]: 5% | inhibition at 10 µM ([24]; MAPK14 (p38 alpha) Direct): -3% | inhibition at 10 µM ([24]; MAPK14 (p38 alpha)): -1% | inhibition at 10 µM [25]: 2% | inhibition at 10 µM [26]: 7% | inhibition at 10 µM [27]: 1% | inhibition at 10 µM [28]: -4% | inhibition at 10 µM [29]: 23% | inhibition at 10 µM [30]: 6% | inhibition at 10 µM [31]: -11% | inhibition at 10 µM [32]: 1%
